What was measured:
recombinant human KDM4A = target: T1, recombinant human KDM4A (Homo sapiens, UniProt O75164); experiment: 14CO2 capture enzymatic assay (decarboxylation of [1-14C] αKG), KDM4A; format: biochemical; settings: 10 μM [1-14C] αKG, 90 μM non-labeled αKG, 50 μM peptide substrate, 37° C., 1 hour, final 1% DMSO
T1 construct: made in house
T1 sequence (O75164 1-359 limits assumed): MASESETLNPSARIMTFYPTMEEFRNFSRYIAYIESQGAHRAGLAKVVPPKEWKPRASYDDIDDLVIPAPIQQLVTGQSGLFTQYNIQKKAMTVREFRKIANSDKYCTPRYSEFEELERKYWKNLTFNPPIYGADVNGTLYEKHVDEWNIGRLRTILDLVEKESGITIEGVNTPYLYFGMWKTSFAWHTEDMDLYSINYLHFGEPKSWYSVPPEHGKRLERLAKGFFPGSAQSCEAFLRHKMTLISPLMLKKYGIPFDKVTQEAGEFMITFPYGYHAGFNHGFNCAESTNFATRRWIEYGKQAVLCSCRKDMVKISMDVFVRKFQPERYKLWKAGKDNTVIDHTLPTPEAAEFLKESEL
Experimental: (§1) Enzymatic activity was determined based on the capture of ^14CO2 released by the decarboxylation of [1-^14C] αKG (Zhang et al., Anal. Biochem., 1998, vol. 271, pp. 137-142). [1-^14C]alphaketoglutarate (αKG) was from Perkin-Elmer, H3K4me3 and H3K9me3 peptides were from Mimotopes. All other reagents were from Sigma. Reaction mixtures included the following components: Fe(SO4), [1-^14C] αKG, non-labeled αKG, ascorbate, peptide-substrate (H3K4me3: H-ARTK(me3)QTARKSTGGKAPRKQLA-OH. H3K9me3: H-ARTKQTARK(me3)STGGKAPRKQLA-OH), NaCl, Tween-20 and catalase in 25 mM HEPES buffer, pH 7.4. The enzymatic reactions were initiated by addition of recombinant human KDM5B or KDM4A enzyme (truncated enzyme produced in house by method and using sequence disclosed in Ng et al, Nature 448:87-91, 2007). The reactions were performed in 96-well microtiter plates (20 μL total assay volume) (Greiner #650201). ^14CO2 was captured on a glass fiber filter paper (Cat. No. IH-201-A, Inotech Biosystems International) soaked with saturated Ba(OH)2 that was laid on top of the 96-well plate. A microtiter plate sealer film (Thermal Seal cat #T7961100) was applied to the filter paper. The plate and filter paper were sandwiched between two custom made aluminum plates (Advanced Component Manufacturing, Burlingame, CA) and transferred to a 37° C. oven and allowed to incubate for 1 hour. After incubation, the filter paper was dried in a 103° C. oven for 40-60 minutes. To determine percent turnover, aliquots of the reaction mixture were spotted onto the filter paper and the filter paper was dried again. The dry filter paper was exposed to a storage phosphor screen for 24-72 hours and the images recorded using a Typhoon FLA 7000 Imager (Amersham Biosciences, Piscataway, NJ). Integrated spot intensities corresponding to control reactions lacking the enzyme were subtracted from integration results for enzyme containing reactions and data were converted to enzyme dependent percent ^14CO2 release. All enzymatic reactions were run in duplicates.
(§2) For IC50 determination, a 3-fold dilution series of compound was prepared and added to the reaction mixture (final 1% DMSO, v/v) prior to enzyme addition. The final reagent concentrations were: 10 μM Fe(SO4), 10 μM [1-^14C] αKG, 90 μM non-labeled αKG, 2 mM ascorbate, 50 μM peptide substrate, 75 mM NaCl, 0.01% Tween-20 and ˜2 units/μL catalase. IC50s were determined by non-linear fitting using Grafit version 7.0.

recombinant human KDM5B = target: T2, recombinant human KDM5B (Homo sapiens, UniProt Q9UGL1); experiment: 14CO2 capture enzymatic assay (decarboxylation of [1-14C] αKG), KDM5B; format: biochemical; settings: 10 μM [1-14C] αKG, 90 μM non-labeled αKG, 50 μM peptide substrate, 37° C., 1 hour, final 1% DMSO
T2 sequence (Q9UGL1 374-755 limits assumed): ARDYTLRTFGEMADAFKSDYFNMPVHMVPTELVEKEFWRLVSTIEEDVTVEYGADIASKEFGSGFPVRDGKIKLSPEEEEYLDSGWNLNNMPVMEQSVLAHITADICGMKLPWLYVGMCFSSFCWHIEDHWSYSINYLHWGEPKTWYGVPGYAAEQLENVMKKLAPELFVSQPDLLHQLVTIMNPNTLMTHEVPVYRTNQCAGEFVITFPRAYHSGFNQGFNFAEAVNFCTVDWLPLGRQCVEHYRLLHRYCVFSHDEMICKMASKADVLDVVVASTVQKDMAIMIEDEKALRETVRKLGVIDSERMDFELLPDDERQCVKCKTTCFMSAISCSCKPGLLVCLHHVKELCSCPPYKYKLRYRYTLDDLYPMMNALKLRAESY
Experimental: as §1, §2

Row | Compound | IC50 (recombinant human KDM4A) [µM] | IC50 (recombinant human KDM5B) [nM]
1 | Cc1ccc(Cl)c(Cc2cc(C#N)c(O)c(C(=O)CCC(=O)O)n2)c1Cl [Example 155, 4-[4-Cyano-6-(2,6-dichloro-3-methyl-benzyl)-3-hydroxy-pyridin-2-yl]-4-oxo-butyric acid] | 34 | 180
2 | N#Cc1cc(Oc2ccccc2)nc(C(=O)CCC(=O)O)c1O [Example 76, 4-(4-Cyano-3-hydroxy-6-phenoxy-pyridin-2-yl)-4-oxo-butyric acid] | > 40 | 190
3 | N#Cc1cc(-c2ccncc2)nc(C(=O)CCC(=O)O)c1O [Example 12, 4-(4-Cyano-5-hydroxy-[2,4′]bipyridinyl-6-yl)-4-oxo-butyric acid] | 16 | 130
4 | Cc1cc(C)c(Cc2cc(C#N)c(O)c(C(=O)CCC(=O)O)n2)c(C)c1 [Example 124, 4-[4-Cyano-3-hydroxy-6-(2,4,6-trimethyl-benzyl)-pyridin-2-yl]-4-oxo-butyric acid] | > 40 | 160
5 | N#Cc1cc(-c2cccc(C(F)(F)F)c2)nc(C(=O)CCC(=O)O)c1O [Example 28, 4-[4-Cyano-3-hydroxy-6-(3-trifluoromethyl-phenyl)-pyridin-2-yl]-4-oxo-butyric acid] | > 40 | 200
6 | Cc1cccc(-c2cc(C#N)c(O)c(C(=O)CCC(=O)O)n2)c1 [Example 72, 4-(4-Cyano-3-hydroxy-6-m-tolyl-pyridin-2-yl)-4-oxo-butyric acid] | > 40 | 100
7 | N#Cc1cc(Cc2c(Cl)ccc(Cl)c2Cl)nc(C(=O)CCC(=O)O)c1O [Example 156, 4-[4-Cyano-3-hydroxy-6-(2,3,6-trichloro-benzyl)-pyridin-2-yl]-4-oxo-butyric acid] | 11 | 70
8 | N#Cc1cc(Cc2c(F)ccc(Cl)c2F)nc(C(=O)CCC(=O)O)c1O [Example 56, 4-[6-(3-Chloro-2,6-difluoro-benzyl)-4-cyano-3-hydroxy-pyridin-2-yl]-4-oxo-butyric acid] | > 40 | 290
9 | N#Cc1cc(Cc2c(Cl)cc(OC(F)(F)F)cc2Cl)nc(C(=O)CCC(=O)O)c1O [Example 143, 4-[4-Cyano-6-(2,6-dichloro-4-trifluoromethoxy-benzyl)-3-hydroxy-pyridin-2-yl]-4-oxo-butyric acid] | > 40 | 230
10 | N#Cc1cc(Cc2ccc(C(F)(F)F)cc2)nc(C(=O)CCC(=O)O)c1O [Example 39, 4-[4-Cyano-3-hydroxy-6-(4-trifluoromethyl-benzyl)-pyridin-2-yl]-4-oxo-butyric acid] | > 40 | 130
11 | N#Cc1cc(Oc2ccc(F)cc2)nc(C(=O)CCC(=O)O)c1O [Example 79, 4-[4-Cyano-6-(4-fluoro-phenoxy)-3-hydroxy-pyridin-2-yl]-4-oxo-butyric acid] | > 40 | 230
12 | Cc1ccc(Oc2cc(C#N)c(O)c(C(=O)CCC(=O)O)c2)cc1 [Example 139, 4-(3-Cyano-2-hydroxy-5-p-tolyloxy-phenyl)-4-oxo-butyric acid] | > 40 | 560
13 | Cc1cccc(C)c1Cc1cc(C#N)c(O)c(C(=O)CCC(=O)O)c1 [Example 122, 4-[3-Cyano-5-(2,6-dimethyl-benzyl)-2-hydroxy-phenyl]-4-oxo-butyric acid] | > 40 | 230
14 | Cc1cc(C#N)c(O)c(C(=O)CCC(=O)O)n1 [Example 6, 4-(4-Cyano-3-hydroxy-6-methyl-pyridin-2-yl)-4-oxo-butyric acid] | > 40 | 280
15 | Cc1c(Cl)cccc1-c1cc(C#N)c(O)c(C(=O)CCC(=O)O)n1 [Example 89, 4-[6-(3-Chloro-2-methyl-phenyl)-4-cyano-3-hydroxy-pyridin-2-yl]-4-oxo-butyric acid] | > 40 | 310
16 | N#Cc1cc(-c2ccc(F)cc2)nc(C(=O)CCC(=O)O)c1O [Example 19, 4-[4-Cyano-6-(4-fluoro-phenyl)-3-hydroxy-pyridin-2-yl]-4-oxo-butyric acid] | > 40 | 230
17 | N#Cc1cc(-c2cccc3ncccc23)nc(C(=O)CCC(=O)O)c1O [Example 112, 4-(4-Cyano-3-hydroxy-6-quinolin-5-yl-pyridin-2-yl)-4-oxo-butyric acid] | > 40 | 390
18 | N#Cc1cccc(Cc2cc(C#N)c(O)c(C(=O)CCC(=O)O)n2)c1 [Example 45, 4-[4-Cyano-6-(3-cyano-benzyl)-3-hydroxy-pyridin-2-yl]-4-oxo-butyric acid] | > 40 | 540
19 | COc1ccc(-c2cc(C#N)c(O)c(C(=O)CCC(=O)O)n2)cc1 [Example 9, 4-[4-Cyano-3-hydroxy-6-(4-methoxy-phenyl)-pyridin-2-yl]-4-oxo-butyric acid] | > 40 | 160
20 | N#Cc1ccc(C(F)(F)F)cc1-c1cc(C#N)c(O)c(C(=O)CCC(=O)O)n1 [Example 105, 4-[4-Cyano-6-(2-cyano-5-trifluoromethyl-phenyl)-3-hydroxy-pyridin-2-yl]-4-oxo-butyric acid] | > 40 | 420
21 | N#Cc1cc(Cc2ccccc2OC(F)(F)F)nc(C(=O)CCC(=O)O)c1O [Example 49, 4-[4-Cyano-3-hydroxy-6-(2-trifluoromethoxy-benzyl)-pyridin-2-yl]-4-oxo-butyric acid] | > 40 | 270
22 | N#Cc1cc(-c2ccc(Cl)cc2)nc(C(=O)CCC(=O)O)c1O [Example 22, 4-[6-(4-Chloro-phenyl)-4-cyano-3-hydroxy-pyridin-2-yl]-4-oxo-butyric acid] | ≥ 40 | 180
23 | N#Cc1cc(Cc2ccc(Cl)cc2)nc(C(=O)CCC(=O)O)c1O [Example 17, 4-[6-(4-Chloro-benzyl)-4-cyano-3-hydroxy-pyridin-2-yl]-4-oxo-butyric acid] | > 40 | 190
24 | COc1cccc(-c2cc(C#N)c(O)c(C(=O)CCC(=O)O)n2)c1Cl [Example 114, 4-[6-(2-Chloro-3-methoxy-phenyl)-4-cyano-3-hydroxy-pyridin-2-yl]-4-oxo-butyric acid] | 10 | 140
25 | N#Cc1cc(Cc2ccc(OC(F)(F)F)cc2)nc(C(=O)CCC(=O)O)c1O [Example 47, 4-[4-Cyano-3-hydroxy-6-(4-trifluoromethoxy-benzyl)-pyridin-2-yl]-4-oxo-butyric acid] | > 40 | 300
26 | N#Cc1ccc(Cc2cc(C#N)c(O)c(C(=O)CCC(=O)O)n2)cc1 [Example 44, 4-[4-Cyano-6-(4-cyano-benzyl)-3-hydroxy-pyridin-2-yl]-4-oxo-butyric acid] | > 40 | 230
27 | N#Cc1cc(Oc2ccccc2)cc(C(=O)CCC(=O)O)c1O [Example 132, 4-(3-Cyano-2-hydroxy-5-phenoxy-phenyl)-4-oxo-butyric acid] | > 40 | 310
28 | Cc1ccc(C(F)(F)F)cc1-c1cc(C#N)c(O)c(C(=O)CCC(=O)O)n1 [Example 97, 4-[4-Cyano-3-hydroxy-6-(2-methyl-5-trifluoromethyl-phenyl)-pyridin-2-yl]-4-oxo-butyric acid] | > 40 | 300
